The test system of one data set is OE33 cells. To be noted: read-out: EC50, OE33 colony formation and other Notch-dependent cell lines; as previously reported; cited from earlier work.
The test system of the next data set is small intestines. The data set is described as follows: PAS staining of small intestine, 5 daily treatments. It is filed as in vivo. The conditions noted are these: 5 daily i.p. treatments; NADI-351 up to 40 mg/kg, DBZ 10 mg/kg.
A further data set concerns hNotch1^ICD. The data set is described as follows: Inducible Notch1^ICD-driven luciferase reporter assay in 293A cells. It is filed as cell-based, human. The conditions noted are these: read-out: IC50, inducible Notch1^ICD-responsive luciferase reporter, 24 h, normalized to cell viability.

These results are taken from PMC8655881 (Cancer research, 2021).

The structures appear in SMILES notation.

Take `C[C@H](NC(=O)Cc1cc(F)cc(F)c1)C(=O)N[C@H](C(=O)OC(C)(C)C)c1ccccc1` [DAPT]: the EC50 in the data set on OE33 cells was 10 to 15 µM.
For `C[C@H](NC(=O)Cc1cc(F)cc(F)c1)C(=O)N[C@@H]1C(=O)N(C)c2ccccc2-c2ccccc21` [DBZ], the “GI toxicity / goblet cell metaplasia (PAS staining)” value in the data set on small intestines is reported as “induction of goblet cell metaplasia”.
As for `CCOC(=O)COc1ccc(/C=C2\SC(=S)NC2=O)cc1OC` [IMR-1], the IC50 with hNotch1^ICD is > 40 µM. For the same compound, the EC50 with OE33 cells was 10 to 15 µM.
